Converted amounts (≈) assume the structure as drawn. The source made the active and inactive calls. The rule behind the calls is not given here.
Assays:
[1] = molecular target: T1, Transient receptor potential cation channel subfamily V member 1 (Rattus norvegicus, UniProt O35433); assay: Antagonist activity at rat TRPV1 expressed in CHO cells assessed as inhibition of acid-induced calcium influx; format: functional, cell-based
[2] = molecular target: T1, Transient receptor potential cation channel subfamily V member 1; assay: Antagonist activity at rat TRPV1 expressed in CHO cells assessed as inhibition of capsaicin-induced calcium influx; format: functional, cell-based
[3] = Metabolic stability in human liver microsomes assessed as clearance; format: ADME, Microsome
[4] = Metabolic stability in rat liver microsomes assessed as clearance; format: ADME, Microsome
[5] = In vivo clearance in Sprague-Dawley rat at 1 mg/kg, iv; format: ADME, organism-based; design: dose 1 mg/kg, route intravenous
[6] = molecular target: T2, Transient receptor potential cation channel subfamily V member 1 (Homo sapiens, UniProt Q8NER1); assay: Antagonist activity at human TRPV1 expressed in CHO cells assessed as inhibition of capsaicin-induced calcium influx; format: functional, cell-based
T2 sequence (Q8NER1 whole entry): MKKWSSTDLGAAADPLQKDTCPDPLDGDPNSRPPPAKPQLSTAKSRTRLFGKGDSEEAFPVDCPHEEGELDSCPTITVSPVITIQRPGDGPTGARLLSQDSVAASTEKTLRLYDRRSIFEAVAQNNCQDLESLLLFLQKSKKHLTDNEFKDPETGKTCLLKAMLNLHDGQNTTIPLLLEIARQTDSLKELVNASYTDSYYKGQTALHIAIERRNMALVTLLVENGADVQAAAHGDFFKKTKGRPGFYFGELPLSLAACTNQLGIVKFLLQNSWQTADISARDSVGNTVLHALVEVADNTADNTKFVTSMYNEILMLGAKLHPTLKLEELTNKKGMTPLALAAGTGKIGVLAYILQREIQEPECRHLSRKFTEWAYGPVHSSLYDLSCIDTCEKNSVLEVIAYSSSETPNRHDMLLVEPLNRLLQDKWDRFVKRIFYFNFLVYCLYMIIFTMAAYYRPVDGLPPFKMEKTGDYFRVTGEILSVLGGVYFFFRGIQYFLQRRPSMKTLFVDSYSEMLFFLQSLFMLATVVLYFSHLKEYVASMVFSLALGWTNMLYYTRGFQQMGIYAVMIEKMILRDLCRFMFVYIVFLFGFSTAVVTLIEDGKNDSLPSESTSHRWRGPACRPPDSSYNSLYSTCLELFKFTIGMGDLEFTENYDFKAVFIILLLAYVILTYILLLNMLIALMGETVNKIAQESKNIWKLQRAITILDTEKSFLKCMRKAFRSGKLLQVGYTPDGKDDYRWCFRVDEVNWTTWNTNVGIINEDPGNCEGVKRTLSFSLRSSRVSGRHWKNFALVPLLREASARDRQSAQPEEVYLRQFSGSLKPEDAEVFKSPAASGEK

[7] = molecular target: T2, Transient receptor potential cation channel subfamily V member 1; assay: Antagonist activity at human TRPV1 expressed in CHO cells assessed as inhibition of acid-induced calcium influx; format: functional, cell-based
[8] = molecular target: T2, Transient receptor potential cation channel subfamily V member 1; assay: Antagonist activity at human TRPV1 expressed in CHO cells assessed as inhibition of heat-induced calcium influx; format: functional, cell-based
[9] = Clearance in Sprague-Dawley rat at 1 mg/kg, iv; format: ADME, organism-based; design: dose 1 mg/kg, route intravenous; settings: in vivo
[10] = Half life in Sprague-Dawley rat at 1 mg/kg, iv; format: ADME, organism-based; design: dose 1 mg/kg, route intravenous; settings: in vivo
[11] = AUC (0-infinity) in Sprague-Dawley rat at 1 mg/kg, iv; format: ADME, organism-based; design: time infinity, dose 1 mg/kg, route intravenous; settings: plasma
[12] = Volume of distribution at steady state in Sprague-Dawley rat at 1 mg/kg, iv; format: ADME, organism-based; design: dose 1 mg/kg, route intravenous; settings: in vivo, read-out: Vss
[13] = Bioavailability in fasted Sprague-Dawley rat at 3 mg/kg, po; format: ADME, organism-based; settings: in vivo
[14] = Aqueous solubility in hydrochloric acid by high-throughput automated format; format: physicochemical
[15] = Solubility in PBS by high-throughput automated format; format: physicochemical
[16] = Solubility in simulated intestinal fluid by high-throughput automated format; format: physicochemical
[17] = AUC (0 to infinity) in rat at 1 mg/kg, iv; format: ADME, organism-based; design: time infinity, dose 1 mg/kg, route intravenous; settings: plasma
[18] = Clearance in rat at 1 mg/kg, iv; format: ADME, organism-based; design: dose 1 mg/kg, route intravenous; settings: in vivo
[19] = Volume of distribution at steady state at 1 mg/kg, iv; format: ADME, organism-based; design: dose 1 mg/kg, route intravenous; settings: rat, in vivo, read-out: Vss
[20] = Half life in rat at 1 mg/kg, iv; format: ADME, organism-based; design: dose 1 mg/kg, route intravenous; settings: in vivo
[21] = Bioavailability in rat at 1 mg/kg, po; format: ADME, organism-based; settings: in vivo
[22] = AUC (0-infinity) in dog at 1 mg/kg, iv; format: ADME, organism-based, Canis lupus familiaris; design: dose 1 mg/kg, route intravenous, time infinity; settings: plasma
[23] = Clearance in dog at 1 mg/kg, iv; format: ADME, organism-based, Canis lupus familiaris; design: dose 1 mg/kg, route intravenous; settings: in vivo
[24] = Volume of distribution at steady state in dog at 1 mg/kg, iv; format: ADME, organism-based, Canis lupus familiaris; design: dose 1 mg/kg, route intravenous; settings: in vivo, read-out: Vss
[25] = Half life in dog at 1 mg/kg, iv; format: ADME, organism-based, Canis lupus familiaris; design: dose 1 mg/kg, route intravenous; settings: in vivo
[26] = Bioavailability in dog at 1 mg/kg, po; format: ADME, organism-based, Canis lupus familiaris; settings: in vivo
[27] = AUC (0-infinity) in monkey at 1 mg/kg, iv; format: ADME, organism-based, Macaca mulatta; design: time infinity, dose 1 mg/kg, route intravenous; settings: rhesus monkey, plasma
[28] = Clearance in monkey at 1 mg/kg, iv; format: ADME, organism-based, Macaca mulatta; design: dose 1 mg/kg, route intravenous; settings: rhesus monkey, in vivo
[29] = Volume of distribution at steady state in monkey at 1 mg/kg, iv; format: ADME, organism-based, Macaca mulatta; design: dose 1 mg/kg, route intravenous; settings: rhesus monkey, in vivo, read-out: Vss
[30] = Half life in monkey at 1 mg/kg, iv; format: ADME, organism-based, Macaca mulatta; design: dose 1 mg/kg, route intravenous; settings: rhesus monkey, in vivo
[31] = Bioavailability in monkey at 1 mg/kg, po; format: ADME, organism-based, Macaca mulatta; settings: rhesus monkey, in vivo
[32] = tested on: Rattus norvegicus; assay: Efficacy in capsaicin-induced flinching in po dosed Sprague-Dawley rat; format: functional
[33] = tested on: Rattus norvegicus; assay: Inhibition of capsaicin-induced flinching in Sprague-Dawley rat at 3 mg/kg, po upto 24 hrs; format: functional, organism-based; design: dose 3 mg/kg
[34] = tested on: Rattus norvegicus; assay: Inhibition of CFA-induced paw thermal hyperalgesia in po dosed Sprague-Dawley rat; format: functional; settings: read-out: MED
[35] = tested on: Rattus norvegicus; assay: Inhibition of CFA-induced paw thermal hyperalgesia in Sprague-Dawley rat at 10 mg/kg, po relative to control; format: functional; design: scale not given: the % may be the effect or the level left
[36] = Half life in rat; format: ADME, organism-based; settings: in vivo
[37] = Bioavailability in fasted Sprague-Dawley rat at 5 mg/kg, po; format: ADME, organism-based; settings: in vivo
[38] = tested on: Rattus norvegicus; assay: Blockade of capsaicin-induced hypothermia in rat at 3 mg/kg, po by telemetry model; format: functional

T1 sequence (O35433 whole entry): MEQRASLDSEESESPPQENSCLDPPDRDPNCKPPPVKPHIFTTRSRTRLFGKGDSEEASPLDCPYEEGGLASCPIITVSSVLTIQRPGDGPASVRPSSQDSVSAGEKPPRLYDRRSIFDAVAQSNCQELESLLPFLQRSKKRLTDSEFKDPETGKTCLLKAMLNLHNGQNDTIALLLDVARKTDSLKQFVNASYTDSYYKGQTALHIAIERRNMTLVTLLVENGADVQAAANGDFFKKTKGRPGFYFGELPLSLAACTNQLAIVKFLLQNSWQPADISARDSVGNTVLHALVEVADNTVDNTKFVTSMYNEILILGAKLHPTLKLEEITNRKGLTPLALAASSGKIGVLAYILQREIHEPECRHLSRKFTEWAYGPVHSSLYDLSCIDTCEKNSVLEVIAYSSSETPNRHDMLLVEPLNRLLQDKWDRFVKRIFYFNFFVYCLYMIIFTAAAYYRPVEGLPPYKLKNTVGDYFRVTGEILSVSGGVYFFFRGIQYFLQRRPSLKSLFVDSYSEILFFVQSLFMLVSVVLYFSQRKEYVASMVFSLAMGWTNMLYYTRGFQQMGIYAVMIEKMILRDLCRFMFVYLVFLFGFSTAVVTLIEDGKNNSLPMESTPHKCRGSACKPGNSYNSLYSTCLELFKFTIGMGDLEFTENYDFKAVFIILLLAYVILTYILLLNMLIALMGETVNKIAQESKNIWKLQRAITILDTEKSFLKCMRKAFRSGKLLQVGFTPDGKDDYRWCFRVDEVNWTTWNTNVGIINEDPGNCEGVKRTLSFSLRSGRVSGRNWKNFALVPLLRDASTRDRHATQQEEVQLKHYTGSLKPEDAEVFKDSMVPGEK

CCC(=O)Nc1nc2c(Oc3cc(-c4ccc(C(F)(F)F)cc4)ncn3)cccc2s1
IC50 [1]: 1500 nM

FC(F)(F)c1ccc(-c2cc(Oc3ccnc4ccccc34)ncn2)cc1
IC50 [2]: > 4000 nM
IC50 [1]: > 4000 nM

CC(=O)N(C)c1nc2c(Oc3cc(-c4ccc(C(F)(F)F)cc4)ncn3)cccc2s1
IC50 [2]: > 4000 nM
IC50 [1]: 860 nM

Nc1nc2c(Oc3cc(-c4ccc(C(F)(F)F)cc4)ncn3)cccc2s1
IC50 [2]: 1.2 nM
IC50 [1]: > 4000 nM
microsomal CLint [3]: < 5 µL/min/mg
microsomal CLint [4]: 47 µL/min/mg
clearance [5]: 3.67 mL/min/kg

CC(=O)Nc1nc2c(Oc3cc(-c4ccc(C(F)(F)F)cc4)ncn3)cccc2s1 [AMG-517]
IC50 [6]: 0.76 nM
IC50 [7]: 0.62 nM
IC50 [8]: 1.3 nM
microsomal CLint [3]: < 5 µL/min/mg
microsomal CLint [4]: 50 µL/min/mg
clearance [5]: 4.17 mL/min/kg
clearance [9]: 3.17 mL/min/kg
half-life [10]: 6.3 h
AUC(0-inf) [11]: 5400 ng·h/mL
Vd [12]: 1.56 L/kg
bioavailability [13]: 32%
solubility [14]: < 1 µg/mL
solubility [15]: < 1 µg/mL
solubility [16]: 6.6 µg/mL (≈ 15.3 µM)
AUC(0-inf) [17]: 8800 ng·h/mL
clearance [18]: 2 mL/min/kg
Vd [19]: 4 L/kg
half-life [20]: 31 h
bioavailability [21]: 51%
AUC(0-inf) [22]: 7400 ng·h/mL
clearance [23]: 2.33 mL/min/kg
Vd [24]: 7 L/kg
half-life [25]: 41 h
bioavailability [26]: 23%
AUC(0-inf) [27]: 37000 ng·h/mL
clearance [28]: 0.5 mL/min/kg
Vd [29]: 2.3 L/kg
half-life [30]: 62 h
bioavailability [31]: 52%
ED50 [32]: 0.35 mg/kg
Activity [33]: Active
minimal effective dose [34]: 0.83 mg/kg
Activity [35]: 35%

FC(F)(F)c1ccc(-c2cc(Oc3ccc4cccnc4c3)ncn2)cc1
half-life [36]: 2.8 h

O=c1ccc2cccc(Oc3cc(-c4ccc(C(F)(F)F)cc4)ncn3)c2[nH]1
IC50 [2]: > 4000 nM
IC50 [1]: > 4000 nM

FC(F)(F)c1ccc(-c2cc(Oc3ccc4ccncc4c3)ncn2)cc1
IC50 [2]: 460 nM
IC50 [1]: > 4000 nM

Nc1nc2c(Oc3cc(-c4ccc(C(F)(F)F)cc4)ncn3)cccc2[nH]c1=O
IC50 [6]: 0.8 nM
IC50 [7]: 0.9 nM
IC50 [8]: 0.4 nM
microsomal CLint [3]: < 14 µL/min/mg
microsomal CLint [4]: < 14 µL/min/mg
clearance [5]: 4.33 mL/min/kg
clearance [9]: 3.28 mL/min/kg
half-life [10]: 6 h
AUC(0-inf) [11]: 5140 ng·h/mL
Vd [12]: 1.69 L/kg
bioavailability [37]: 7%
solubility [14]: < 1 µg/mL
solubility [15]: < 1 µg/mL
solubility [16]: 9.2 µg/mL (≈ 23 µM)

Nc1cnc2cccc(Oc3cc(-c4ccc(C(F)(F)F)cc4)ncn3)c2n1
IC50 [2]: 63 nM
IC50 [1]: 16 nM
microsomal CLint [3]: < 14 µL/min/mg
microsomal CLint [4]: 15 µL/min/mg
clearance [5]: 71.7 mL/min/kg
Activity [38]: 100%

FC(F)(F)c1ccc(-c2cc(Oc3ccc4ccccc4n3)ncn2)cc1
IC50 [1]: > 4000 nM

— ChEMBL document CHEMBL1145459, “Novel vanilloid receptor-1 antagonists: 2. Structure-activity relationships of 4-oxopyrimidines leading to the selection of a clinical candidate” (J Med Chem, 2007)
